Assays:
[1] = target: T1, long isoform of human D2 receptor (Homo sapiens, UniProt P14416); test: Arrestin Antagonist Assay (DRD2L PathHunter CHO-K1 cells, vs EC80 dopamine); settings: for Emax: CHO-K1, read-out: β-arrestin (antagonist mode) Imax
Protocol: (§1) Cell Lines: Activities of the compounds were assessed using a Chinese Hamster Ovary (CHO—K1) cell line that recombinantly expressed the long isoform of human D2 receptor (DRD2L PathHunter cells). The D2 receptor DNA sequence was modified to contain a “ProLink” at its C-terminus which allowed complementation with an “enzyme acceptor” (EA)-tagged β-arrestin protein. The recruitment of the O-arrestin by the D2 receptor led to complementation of the ProLink and EA and formation of active β-galactosidase which generated a D2-specific signal that was measured.
Arrestin Antagonist Assay: One day prior to testing, a vial of high density stock of DRD2L PathHunter cells was thawed, and 1×10^7 cells diluted into 40 mL of growth media (Ham's F12/10% HI FBS/1% PSG). 20 μL cells per well were seeded directly into assay plates, and the plates were allowed to rest for 1 h at RT before incubating in a plate incubator overnight.
The plate was incubated for 30 min at 37° C. 15 μL PathHunter detection reagent was added to each well of the assay plate, which was then covered and incubated for 1 h at RT. The plate was read on an Envision reader using the Luminescence protocol, and the data were exported for analysis.
The IC50 values (concentration producing a half-maximal inhibitory response) were determined by non-linear regression analysis of the concentration-response curves.

[2] = target: T1, long isoform of human D2 receptor; test: cAMP HTRF Agonist Assay (DRD2L PathHunter CHO-K1 cells, forskolin-stimulated); settings: for Emax: CHO-K1, read-out: cAMP (agonist mode) Emax
Protocol: Cell Lines: Activities of the compounds were assessed using a Chinese Hamster Ovary (CHO—K1) cell line that recombinantly expressed the long isoform of human D2 receptor (DRD2L PathHunter cells). The D2 receptor DNA sequence was modified to contain a “ProLink” at its C-terminus which allowed complementation with an “enzyme acceptor” (EA)-tagged β-arrestin protein. The recruitment of the O-arrestin by the D2 receptor led to complementation of the ProLink and EA and formation of active β-galactosidase which generated a D2-specific signal that was measured. The cAMP assay was measured in the same D2-expressing cell line. The D2 receptor inhibited cAMP formation so that the basal levels of cAMP were increased by the addition of an adenylate cyclase stimulator, forskolin.
cAMP HTRF Agonist Assay: Two days prior to testing, a vial of high density stock of DRD2L PathHunter cells was thawed, and cells were diluted into 10 mL of growth media (Ham's F12/10% HI FBS/1% PSG) and used to seed a T225 flask containing 50 mL of growth media. Cells were cultured for 2 days.
On the day of the assay, cells were dissociated in 5 mL cell dissociation buffer (enzyme free—Invitrogen) for 10-15 minutes at 37° C. Dissociated cells were diluted with 10 mL of growth media and counted. Cell counts were routinely ˜2×10^7 per T225. Cells were then pelleted at 1500 rpm for 5 min. Supernatant was aspirated, and cells were re-suspended in HBSS/20 mM Hepes, pH 7.4 to a cell density of 1×10^6/mL.
cAMP levels were determined using the Cisbio HTRF method. HRTF reagents (cAMP-HTRF acceptor fluorophore (d2) conjugate and cryptate-labeled anti-cAMP antibody) were prepared according to maunfacturers instructions. 5 μL of each were added to each well of an assay plate and incubated for 1 h at RT. The plate was then read on an Envision reader using the HTRF protocol, and data were exported for analysis.
(§2) The agonist Emax results were expressed as a percent of the dopamine control response ((measured specific response/control specific agonist response)×100) obtained in the presence of test article. The EC50 values (concentration producing a half-maximal specific response) were determined by non-linear regression analysis of the concentration-response curves.

[3] = target: T1, long isoform of human D2 receptor; test: Arrestin Agonist Assay (DRD2L PathHunter CHO-K1 cells, β-arrestin recruitment); settings: for Emax: CHO-K1, read-out: β-arrestin (agonist mode) Emax
Protocol: as §1
Arrestin Agonist Assay: One day prior to testing, a vial of high density stock of DRD2L PathHunter cells was thawed, and 1×10^7 cells diluted into 40 mL of growth media (Ham's F12/10% HI FBS/1% PSG). 20 μL cells per well were seeded directly into assay plates, and the plates were allowed to rest for 1 h at RT before incubating in a plate incubator overnight.
5 μL diluted compound was added to cells in each well, and the assay plate was incubated for 90 min at 37° C. 12.5 μL PathHunter detection reagent was added to each well of the assay plate, which was then covered and incubated for 1 h at RT. The plate was read on an Envision reader using the Luminescence protocol, and the data were exported for analysis.
as §2

T1 sequence (P14416 whole entry, canonical isoform): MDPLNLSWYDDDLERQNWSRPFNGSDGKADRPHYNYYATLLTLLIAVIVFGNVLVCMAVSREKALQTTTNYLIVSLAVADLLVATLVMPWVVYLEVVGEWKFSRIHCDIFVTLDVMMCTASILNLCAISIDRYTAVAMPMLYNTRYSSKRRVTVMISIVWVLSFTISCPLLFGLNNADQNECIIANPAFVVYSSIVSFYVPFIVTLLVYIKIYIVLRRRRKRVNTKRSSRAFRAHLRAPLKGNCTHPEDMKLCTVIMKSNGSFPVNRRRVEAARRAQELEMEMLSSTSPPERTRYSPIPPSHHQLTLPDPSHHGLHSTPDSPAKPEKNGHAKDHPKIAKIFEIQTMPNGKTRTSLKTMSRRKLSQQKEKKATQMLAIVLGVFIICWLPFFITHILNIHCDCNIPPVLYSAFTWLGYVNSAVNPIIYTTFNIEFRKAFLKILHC

Row | Structure (SMILES) | IC50 [1] [nM] | Emax [1] [%] | IC50 [2] [nM] | Emax [2] [%] | EC50 [3] [nM] | Emax [3] [%]
1 | Cc1cccc(N2CCN(CCCCOc3ccc4cccc(O)c4n3)CC2)c1C [Compound 7, 2-(4-(4-(2,3-dimethylphenyl)piperazin-1-yl)butoxy)quinolin-8-ol] | 100 to 1000 | > 75 | 10 to 100 | 25 to 50 | > 10000 | < 10
2 | O=C1CCc2ccc(OCCCCN3CCc4c(cnn4-c4cccc(Cl)c4)C3)cc2N1 [Compound 32, 7-(4-(1-(3-chlorophenyl)-6,7-dihydro-1H-pyrazolo[4,3-c]pyridin-5(4H)-yl)butoxy)-3,4-dihydroquinolin-2(1H)-one] | < 10 | > 75 | > 10000 | < 10 | > 10000 | < 10
3 | O=C1CCc2ccc(OCCCCN3CCc4ccccc4C3)cc2N1 [Compound 91, 7-(4-(3,4-dihydroisoquinolin-2(1H)-yl)butoxy)-3,4-dihydroquinolin-2(1H)-one] | 10 to 100 | > 75 | < 10 | 25 to 50 | < 10 | 10 to 25
4 | O=c1ccc2ccc(OCCCCN3CCc4sccc4C3)nc2[nH]1 [Compound 53, 7-(4-(6,7-dihydrothieno[3,2-c]pyridin-5(4H)-yl)butoxy)-1,8-naphthyridin-2(1H)-one] | 10 to 100 | > 75 | < 10 | 10 to 25 | > 10000 | < 10
5 | O=C1NCCc2ccc(OCCCCN3CCc4cc(Cl)ccc4C3)nc2N1 [Compound 85, 8-(4-(6-chloro-3,4-dihydroisoquinolin-2(1H)-yl)butoxy)-4,5-dihydro-1H-pyrido[2,3-d][1,3]diazepin-2(3H)-one] | 10 to 100 | > 75 | > 10000 | < 10 | > 10000 | < 10
6 | COc1ccc(-n2cc3c(n2)CCN(CCCCOc2ccc4c(c2)NC(=O)CC4)C3)cc1 [Compound 39, 7-(4-(2-(4-methoxyphenyl)-6,7-dihydro-2H-pyrazolo[4,3-c]pyridin-5(4H)-yl)butoxy)-3,4-dihydroquinolin-2(1H)-one] | 1000 to 10000 | > 75 | > 10000 | < 10 | > 10000 | < 10
7 | COc1cccnc1N1CCN(CCCCOc2ccc3cccc(O)c3n2)CC1 [Compound 9, 2-(4-(4-(3-methoxypyridin-2-yl)piperazin-1-yl)butoxy)quinolin-8-ol] | 10 to 100 | > 75 | < 10 | 25 to 50 | > 10000 | < 10
8 | CCOc1ccccc1N1CCN(CCCCOc2ccc3cn[nH]c3c2)CC1 [Compound 93, 6-(4-(4-(2-ethoxyphenyl)piperazin-1-yl)butoxy)-1H-indazole] | 10 to 100 | > 75 | < 10 | 25 to 50 | < 10 | 10 to 25
9 | c1cc(OCCCCN2CCc3ccccc3C2)nc(-c2cc[nH]n2)c1 [Compound 44, 2-(4-((6-(1H-pyrazol-3-yl)pyridin-2-yl)oxy)butyl)-1,2,3,4-tetrahydroisoquinoline] | 10 to 100 | > 75 | < 10 | 10 to 25 | < 10 | 10 to 25
10 | c1cc(OCCCCN2CCc3ccccc3C2)nc(-c2c[nH]cn2)c1 [Compound 51, 2-(4-((6-(1H-imidazol-4-yl)pyridin-2-yl)oxy)butyl)-1,2,3,4-tetrahydroisoquinoline] | 100 to 1000 | > 75 | > 10000 | < 10 | > 10000 | < 10
11 | CCS(=O)(=O)Nc1cccc(OCCCCN2CCc3ccccc3C2)n1 [Compound 43, N-(6-(4-(3,4-dihydroisoquinolin-2(1H)-yl)butoxy)pyridin-2-yl)-ethanesulfonamide] | 100 to 1000 | > 75 | > 10000 | < 10 | > 10000 | < 10
12 | c1ccc(N2CCN(CCCCOc3ccc4cn[nH]c4c3)CC2)nc1 [Compound 94, 6-(4-(4-(pyridin-2-yl)piperazin-1-yl)butoxy)-1H-indazole] | > 10000 | < 10 | < 10 | > 75 | < 10 | > 75
13 | Oc1cccc2ccc(OCCCCN3CCc4ccccc4C3)nc12 [Compound 12, 2-(4-(3,4-dihydroisoquinolin-2(1H)-yl)butoxy)quinolin-8-ol] | 1000 to 10000 | > 75 | > 10000 | < 10 | 10 to 100 | 10 to 25
14 | O=C1NCCc2ccc(OCCCCN3CCc4ccsc4C3)nc2N1 [Compound 87] | 10 to 100 | > 75 | > 10000 | < 10 | > 10000 | < 10
15 | N#Cc1ccc2c(c1)CCN(CCCCOc1ccc3cccc(O)c3n1)C2 [Compound 15, 2-(4-((8-hydroxyquinolin-2-yl)oxy)butyl)-1,2,3,4-tetrahydroisoquinoline-6-carbonitrile] | 1000 to 10000 | > 75 | > 10000 | < 10 | > 10000 | < 10
16 | O=C1CCc2ccc(OCCCCN3CCn4cncc4C3)cc2N1 [Compound 33, 7-(4-(5,6-dihydroimidazo[1,5-a]pyrazin-7(8H)-yl)butoxy)-3,4-dihydroquinolin-2(1H)-one] | 1000 to 10000 | 50 to 75 | > 10000 | < 10 | > 10000 | < 10
17 | Oc1cccc2ccc(OCCCCN3CCc4cc(C(F)(F)F)ccc4C3)nc12 [Compound 17, 2-(4-(6-(trifluoromethyl)-3,4-dihydroisoquinolin-2(1H)-yl)butoxy)quinolin-8-ol] | 1000 to 10000 | > 75 | > 10000 | < 10 | > 10000 | < 10
18 | N#Cc1cccnc1N1CCN(CCCCOc2ccc3cccc(O)c3n2)CC1 [Compound 22, 2-(4-(4-((8-hydroxyquinolin-2-yl)oxy)butyl)piperazin-1-yl)nicotinonitrile] | 100 to 1000 | 25 to 50 | < 10 | 25 to 50 | 10 to 100 | 25 to 50
19 | CN(C)c1ncnc2c1CCN(CCCCOc1ccc3c(c1)NC(=O)CC3)C2 [Compound 29, 7-(4-(4-(dimethylamino)-5,6-dihydropyrido[3,4-d]pyrimidin-7(8H)-yl)butoxy)-3,4-dihydroquinolin-2(1H)-one] | 100 to 1000 | > 75 | 10 to 100 | 25 to 50 | 100 to 1000 | 25 to 50
20 | O=c1ccc2ccc(OCCCCN3CCc4cc(F)ccc4C3)nc2[nH]1 [Compound 56, 7-(4-(6-fluoro-3,4-dihydroisoquinolin-2(1H)-yl)butoxy)-1,8-naphthyridin-2(1H)-one] | < 10 | > 75 | > 10000 | < 10 | > 10000 | < 10
21 | c1ccc(N2CCN(CCCCOc3ccc4cn[nH]c4n3)CC2)nc1 [Compound 4, 6-(4-(4-(pyridin-2-yl)piperazin-1-yl)butoxy)-1H-pyrazolo[3,4-b]pyridine] | > 10000 | < 10 | < 10 | > 75 | 10 to 100 | > 75
22 | Clc1ccccc1N1CCN(CCCCOc2cccc(-c3cc[nH]n3)n2)CC1 [Compound 50, 1-(4-((6-(1H-pyrazol-3-yl)pyridin-2-yl)oxy)butyl)-4-(2-chlorophenyl)piperazine] | < 10 | 50 to 75 | < 10 | 50 to 75 | < 10 | 25 to 50
23 | O=C1CCc2ccc(OCCCCN3CCc4cc(C(F)(F)F)ccc4C3)nc2N1 [Compound 74, 7-(4-(6-(trifluoromethyl)-3,4-dihydroisoquinolin-2(1H)-yl)butoxy)-3,4-dihydro-1,8-naphthyridin-2(1H)-one] | 100 to 1000 | > 75 | 10 to 100 | 10 to 25 | > 10000 | < 10
24 | COc1ccc2c(c1)CCN(CCCCOc1ccc3c(n1)NC(=O)CC3)C2 [Compound 71, 7-(4-(6-methoxy-3,4-dihydroisoquinolin-2(1H)-yl)butoxy)-3,4-dihydro-1,8-naphthyridin-2(1H)-one] | 10 to 100 | > 75 | > 10000 | < 10 | > 10000 | < 10
25 | O=C1NCCc2ccc(OCCCCN3CCc4c(Cl)cccc4C3)nc2N1 [Compound 88, 8-(4-(5-chloro-3,4-dihydroisoquinolin-2(1H)-yl)butoxy)-4,5-dihydro-1H-pyrido[2,3-d][1,3]diazepin-2(3H)-one] | 100 to 1000 | 25 to 50 | < 10 | 50 to 75 | 10 to 100 | 25 to 50
26 | N#Cc1ccc2c(c1)CCN(CCCCOc1ccc3ccc(=O)[nH]c3n1)C2 [Compound 57, 2-(4-((7-oxo-7,8-dihydro-1,8-naphthyridin-2-yl)oxy)butyl)-1,2,3,4-tetrahydroisoquinoline-6-carbonitrile] | 10 to 100 | > 75 | > 10000 | < 10 | > 10000 | < 10
27 | Cc1cccc(N2CCN(CCCCOc3ccc4cn[nH]c4n3)CC2)c1C [Compound 3, 6-(4-(4-(2,3-dimethylphenyl)piperazin-1-yl)butoxy)-1H-pyrazolo[3,4-b]pyridine] | 100 to 1000 | > 75 | 10 to 100 | 10 to 25 | > 10000 | < 10
